In US12473377B2, “Antibody-ALK5 inhibitor conjugates and their uses” (Synthis Therapeutics, Inc., priority 2016, dated 2025):
Like-named read-outs stand apart in the source and are kept apart here.

Experiments:
[1] = tested on: primary mouse CD4^+ T cells; experiment: MTS proliferation assay; type: cell-based; conditions: for IC50: Mus musculus, CD4+ T; for reversal of TGFβ-mediated inhibition of T cell proliferation (in words): mouse CD4^+ T cells, 1 nM TGF-β1
Protocol: Compounds A-D were tested to determine whether they could inhibit TGF-β signaling in primary mouse CD4^+ T cells.
Primary mouse CD4^+ T cells were isolated from the spleens of C57/B6 mice using the RoboSep™ cell isolation system (Stemcell Technologies). 0.5 μg/ml of hamster anti-mouse CD3e antibody (145-2C11; eBioscience) was coated onto a 96 well flat bottom plate overnight. 1×10^5 purified CD4^+ T cells were incubated with 1 μg/ml soluble hamster anti-mouse CD28 antibody (37.51, BD Biosciences), 1 nM TGF-β1 and 8-fold serial dilutions of Compounds A-D. After 72 hours, cell proliferation was measured using an MTS assay (Promega) in accordance with the manufacturer's instructions.

[2] = tested on: TGF-β-induced luciferase activity in HEK293T cells; experiment: TGF-β-induced SMAD luciferase reporter assay in HEK293T cells; type: cell-based; conditions: Homo sapiens, HEK-293T, 24 hours
Protocol: Compounds A-D were tested to determine whether they could inhibit TGF-β-induced luciferase activity in HEK293T cells in vitro.
30,000 HEK293T cells were seeded in a 96 well white flat bottom plate overnight. The next day 100 ng of a SMAD luciferase reporter plasmid per well was transfected into the cells using lipofectamine for 24 hours. The next day cells were treated with Compounds A-D and […] TGFβ for 24 hours. Luciferase activity was measured using the Dual-Glo® luciferase assay kit (Promega). The assay was run twice for Compounds A, B, and D, and three times for Compound C.

[3] = tested on: GzmB expression in primary CD8^+ T cells; experiment: Granzyme B expression assay; type: cell-based, mouse; conditions: 1 nM TGF-β, ADC1 at DARs 2-4, 4-6 and 6-8, flow cytometry
Protocol: Mouse CD3^+ T cells were purified from mouse spleens using the EasySep™ Mouse T cell isolation kit (negative selection) (Stemcell Technologies). CD3^+ T cells were activated as before using plate bound antiCD3e and soluble anti-CD28 for 48 hours. T cells were washed and re-plated in media with 5% serum plus 1 nM TGF-β−/+ADC.
Golgi stop reagent was added for the last 4 hours and then the cells were immunostained for surface CD8 (BD) and intracellular GzmB (eBioscience) and analyzed via flow cytometry. Granzyme B (GzmB) is a serine protease released by CD8^+ T cells to kill tumor cells. Thus, increased expression of GzmB is indicative of CD8^+ cytotoxic T cell activation.

Mouse CTLL2 cells = experiment: CTLL2 proliferation assay (BrdU ELISA); type: cell-based
Protocol: Mouse CTLL2 cells were cultured at 1×10^5 cells/well in 0.2 ng/ml IL2. To each well as indicated 1 nM TGF-β, 1 μg/ml ADC, and/or 100 nM ALK5 inhibitor Compound C was added to the wells for 24 hours. Proliferation was quantitated via addition of the BrdU reagent (Abcam) to each well for another 12 hours and then analyzed by ELISA.

[4] = tested on: Naïve CD4 T cells (iTreg FoxP3 expression); experiment: iTreg conversion assay; type: cell-based, mouse
Protocol: Naïve CD4 T cells were isolated from isolated mouse spleenocytes using a negative selection kit. The cell density was adjusted to 0.4×10^6 cells/ml, and 10 ng/ml of mouse IL-2, 20 ng/ml of TGF-β, and 1 μg/ml of soluble anti-CD28 was added to the cell suspension.
Anti-mouse CD3 antibody at 10 μg/ml was coated on a 24 well plate and incubated at 4° C. overnight. The antibody was then aspirated from the plate. 1 ml of the cell suspension was added to each well of the 24 well plate. ADC1 (DAR 4-6) at 3 μg/ml and 5 μg/ml, anti-transferrin receptor antibody, rat anti-mouse IgG2A isotype control ALK5 ADC, and ALK5 inhibitor Compound C at 100 nM and 1 μM were added to separate wells of the 24 well plate. The cells were then cultured for 72 hours. TfR expression was tested at 48 hours (data not shown). Cells were stained for FoxP3 (eBioscience FoxP3 staining buffer) and sorted by FACS at 72 hours.

[5] = Experiment 1, anti-CD3e/anti-CD28, 1 nM TGF-β1, 72 hours
[6] = Experiment 2, anti-CD3e/anti-CD28, 1 nM TGF-β1, 72 hours, read-out: Experiment 2 IC50
[7] = Experiment 1, 100 μM TGFβ, read-out: Experiment 1 IC50
[8] = Experiment 2, 100 μM TGFβ, read-out: Experiment 2 IC50
[9] = Experiment 1, anti-CD3e/anti-CD28, 1 nM TGF-β1, 72 hours, read-out: Experiment 1 IC50

Molecule	Experiment 1 IC50 [1, 5]	IC50 [1, 6] [nM]	reversal of TGFβ-mediated inhibition of T cell proliferation (in words) [1]	IC50 [2, 7] [nM]	IC50 [2, 8] [nM]	IC50 [1, 9] [nM]	restoration of GzmB expression ([3]; listed as ALK5 compound)	restoration of GzmB expression ([3]; listed as free ALK5 inhibitor)	restoration of CTLL2 proliferation in presence of TGF-β (Mouse CTLL2 cells; 100 nM ALK5 inhibitor Compound C, 1 nM TGF-β, 24 hours)	amount of iTreg generated ([4]; 100 nM free ALK5 inhibitor, 20 ng/ml TGF-β, 72 hours)	iTreg generation ([4]; 100 nM of free ALK5 inhibitor (FIG. 12 legend))	IC50 ([2]; Experiment 3, 100 μM TGFβ, read-out: Experiment 3 IC50) [nM]	Experiment 2 IC50 ([1]; Experiment 2, anti-CD3e/anti-CD28, 1 nM TGF-β1, 72 hours)	inhibition of CTLL2 proliferation (Mouse CTLL2 cells; 1 nM TGF-β alone)
Cc1cccc(-c2nc(N)sc2-c2ccc3ncccc3n2)n1 [Compound A, 4-(6-methylpyridin-2-yl)-5-(1,5-naphthyridin-2-yl)thiazol-2-amine]	Value not obtained	153	did not show consistent effects	18.7	29.8									
CNCCOc1ccc(-c2cc(-c3c[nH]nc3-c3ccccn3)ccn2)cc1 [Compound B, N-methyl-2-(4-(4-(3-(pyridin-2-yl)-1H-pyrazol-4-yl)pyridin-2-yl)phenoxy)ethan-1-amine]		34	reversed TGFβ-mediated inhibition of T cell proliferation	51.8	11.3	60								
CNCCOc1ccc(-c2cc(-c3c[nH]nc3-c3cccc(C)n3)ccn2)cc1 [Compound C, N-methyl-2-(4-(4-(3-(6-methylpyridin-2-yl)-1H-pyrazol-4-yl)pyridin-2-yl)phenoxy)ethan-1-amine]		33	reversed TGFβ-mediated inhibition of T cell proliferation	10.1	21.2	20	restore GzmB expression	partially restores Granzyme B expression	almost complete reversal of TGF-β inhibition and restoration of CTLL2 proliferation	modestly decreased the amount of iTreg generated	decreases iTreg generation	13.2		
CCNC(=O)c1ccc2c(c1)NC(=O)/C2=C(\Nc1ccc(N(CCNC)S(C)(=O)=O)cc1)c1ccccc1 [Compound D, (Z)-N-ethyl-3-(((4-(N-(2-(methylamino)ethyl)methylsulfonamido)phenyl)amino)(phenyl)methylene)-2-oxoindoline-6-carboxamide]	Value not obtained		an IC50 value was not obtained	1070	1520								Value not obtained	
TGF-β														approximately 60%
